Experimental data taken from ChEMBL document CHEMBL1201862, “PubChem BioAssay data set” (2004).
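In this assay, cells in 96-well plates receive the compound at five concentrations for 48 hours. Endpoints are linearly interpolated between the surrounding concentrations. GI50 marks 50% less growth.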 The source made the active and inactive calls. No stated cut-off is given here; in the data, active = GI50 up to about 1.1 µM and inactive = higher.

How the values were obtained:
Experiment in all cases: growth of human tumour cells (NCI), 48 h
[1] = tested on: UACC-62
[2] = tested on: K562
[3] = tested on: NCI-H460
[4] = tested on: 786-0
[5] = tested on: A549
[6] = tested on: SK-MEL-5
[7] = tested on: SF-539
[8] = tested on: UACC-257
[9] = tested on: U-251
[10] = tested on: OVCAR-8
[11] = tested on: M14
[12] = tested on: HOP-92
[13] = tested on: EKVX
[14] = tested on: NCI-H23
[15] = tested on: LOX IMVI
[16] = tested on: SNB-78
[17] = tested on: COLO 205
[18] = tested on: KM12

Compound | GI50 [1] | GI50 [2] | GI50 [3] | GI50 [4] | GI50 [5] | GI50 [6] | GI50 [7] | GI50 [8] | GI50 [9] | GI50 [10] | GI50 [11] | GI50 [12] | GI50 [13] | GI50 [14] | GI50 [15] | GI50 [16] | GI50 [17] | GI50 [18]
Cc1cc(/C=C/c2cc[n+](C)c3ccccc23)c(O)c2ncccc12 | 1.99 µM (inactive) | 2.46 µM (inactive) | 0.597 µM (active) | 0.916 µM (active) | 2.07 µM (inactive) | 1.02 µM (active) | 0.426 µM (active) | 2.97 µM (inactive) | 1.23 µM (inactive) | 0.411 µM (active) | 1.44 µM (inactive) | 2.99 µM (inactive) | 3.28 µM (inactive) | 1.7 µM (inactive) | 1.35 µM (inactive) | 4.63 µM (inactive) | 5.68 µM (inactive) | 2.19 µM (inactive)
CCSC1=CC(Cc2ccc(OC)cc2)N(C(=O)OC)C1 (stereo not drawn) | 65.8 µM (inactive) | 34.3 µM (inactive) | > 100 µM (inactive) | > 100 µM (inactive) | > 100 µM (inactive) | 49.4 µM (inactive) | > 100 µM (inactive) | 90.6 µM (inactive) | > 100 µM (inactive) | > 100 µM (inactive) | > 100 µM (inactive) | 55.2 µM (inactive) | > 100 µM (inactive) | > 100 µM (inactive) | 36.3 µM (inactive) | > 100 µM (inactive) | 81.5 µM (inactive) | 97.7 µM (inactive)
Cc1nc(C)c(C(=O)Nc2cccc3c2C(=O)NC3=O)cc1C(=O)Nc1cccc2c1C(=O)NC2=O | > 100 µM (inactive) | > 100 µM (inactive) | > 100 µM (inactive) | > 100 µM (inactive) | > 100 µM (inactive) | > 100 µM (inactive) | > 100 µM (inactive) | > 100 µM (inactive) | > 100 µM (inactive) | > 100 µM (inactive) | > 100 µM (inactive) | > 100 µM (inactive) | > 100 µM (inactive) | > 100 µM (inactive) | > 100 µM (inactive) | > 100 µM (inactive) | > 100 µM (inactive) | > 100 µM (inactive)
COC(=O)N/N=C(\C)c1c(O)cc(C)oc1=O | 5.62 µM (inactive) | 17.5 µM (inactive) | 37.8 µM (inactive) | 56.2 µM (inactive) | 29 µM (inactive) | 50.8 µM (inactive) | 14.7 µM (inactive) | > 100 µM (inactive) | 28.8 µM (inactive) | 59.3 µM (inactive) | 35.2 µM (inactive) | > 100 µM (inactive) | > 100 µM (inactive) | > 100 µM (inactive) | 7.85 µM (inactive) | > 100 µM (inactive) |  | 52.6 µM (inactive)
O=C1C2C3C=C4c5ccccc5N(c5ccccc5)C4(C2C(=O)N1c1ccc(Br)cc1)[C@H]1C(=O)N(c2ccc(Br)cc2)C(=O)[C@@H]31 (stereo partly drawn) | > 100 µM (inactive) | > 100 µM (inactive) | > 100 µM (inactive) | > 100 µM (inactive) | > 100 µM (inactive) | > 100 µM (inactive) | > 100 µM (inactive) | > 100 µM (inactive) | > 100 µM (inactive) | > 100 µM (inactive) | 43.4 µM (inactive) | 84.3 µM (inactive) | > 100 µM (inactive) | > 100 µM (inactive) | 87.9 µM (inactive) | > 100 µM (inactive) | 31.6 µM (inactive) | > 100 µM (inactive)
COC(=O)[C@@]12OC[C@]34C([C@@H](O)C1O)[C@@]1(C)CC(=O)C(OC(=O)/C=C(/c5ccccc5)C(F)(F)F)=C(C)C1C[C@H]3OC(=O)[C@H](O)[C@H]42 (stereo partly drawn) | 2.36 µM (inactive) | 9.4 µM (inactive) | 2.43 µM (inactive) | 9.04 µM (inactive) | 16.5 µM (inactive) | 4.83 µM (inactive) | 3.79 µM (inactive) | 8.73 µM (inactive) | 6.68 µM (inactive) | 12.1 µM (inactive) | 8.77 µM (inactive) | 5.86 µM (inactive) | 38.6 µM (inactive) | 4.56 µM (inactive) |  | 11.2 µM (inactive) | 11.2 µM (inactive) | 14.4 µM (inactive)
CC(C)S(=O)(=O)ON1C(=O)c2ccc([N+](=O)[O-])cc2C1=O | > 100 µM (inactive) | > 100 µM (inactive) | > 100 µM (inactive) | > 100 µM (inactive) | > 100 µM (inactive) | > 100 µM (inactive) | > 100 µM (inactive) | > 100 µM (inactive) | > 100 µM (inactive) | > 100 µM (inactive) | > 100 µM (inactive) | 41.9 µM (inactive) | > 100 µM (inactive) | > 100 µM (inactive) |  | > 100 µM (inactive) | > 100 µM (inactive) | > 100 µM (inactive)
